PubChem BioAssay AID2060512 (Molecular Pharmacology Branch, DTP, NCI, 2025)

Tested on: 186277-243-T-J2-PDC complex spheroid viability
Experiment: Anticancer human tumor 186277-243-T-J2-PDC patient-derived colon adenocarcinoma cell line growth inhibition [GQUAD]
Conditions: for IC50: curve of first compound; for viability, T/C: stronger effect = lower value
Procedure, shortened: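 Viability of tumor cells grown as complex spheroids with endothelial and stromal cells, exposed to drug combinations. Top concentration at or near clinical Cmax (else 10 microM), diluted in half-log increments.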

[1] = second compound 0.0316 µM, first compound 0.0316 µM
[2] = second compound 0.0316 µM, first compound 0.1 µM
[3] = second compound 0.0316 µM, first compound 0.316 µM
[4] = second compound 0.0316 µM, first compound 1 µM
[5] = second compound 0.0316 µM, first compound 3.16 µM
[6] = second compound 0.0316 µM, first compound 10 µM
[7] = second compound 0.1 µM, first compound 0.0316 µM
[8] = second compound 0.1 µM, first compound 0.1 µM
[9] = second compound 0.1 µM, first compound 0.316 µM
[10] = second compound 0.1 µM, first compound 1 µM
[11] = second compound 0.1 µM, first compound 3.16 µM
[12] = second compound 0.1 µM, first compound 10 µM
[13] = second compound 0.316 µM, first compound 0.0316 µM
[14] = second compound 0.316 µM, first compound 0.1 µM
[15] = second compound 0.316 µM, first compound 0.316 µM
[16] = second compound 0.316 µM, first compound 1 µM
[17] = second compound 0.316 µM, first compound 3.16 µM
[18] = second compound 0.316 µM, first compound 10 µM
[19] = second compound 1 µM, first compound 0.0316 µM
[20] = second compound 1 µM, first compound 0.1 µM
[21] = second compound 1 µM, first compound 0.316 µM
[22] = second compound 1 µM, first compound 1 µM
[23] = second compound 1 µM, first compound 3.16 µM
[24] = second compound 1 µM, first compound 10 µM
[25] = second compound 3.16 µM, first compound 0.0316 µM
[26] = second compound 3.16 µM, first compound 0.1 µM
[27] = second compound 3.16 µM, first compound 0.316 µM
[28] = second compound 3.16 µM, first compound 1 µM
[29] = second compound 3.16 µM, first compound 3.16 µM
[30] = second compound 3.16 µM, first compound 10 µM
[31] = second compound 10 µM, first compound 0.0316 µM
[32] = second compound 10 µM, first compound 0.1 µM
[33] = second compound 10 µM, first compound 0.316 µM
[34] = second compound 10 µM, first compound 1 µM
[35] = second compound 10 µM, first compound 3.16 µM
[36] = second compound 10 µM, first compound 10 µM
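For viability, T/C in this document: 100% = DMSO vehicle control viability.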

O=C(NO)c1cnc(N2CCN(S(=O)(=O)c3ccc4ccccc4c3)CC2)nc1 + CN(C)c1ccc(Nc2c3ccc(NC(=O)CCN4CCCC4)cc3nc3cc(NC(=O)CCN4CCCC4)ccc23)cc1
IC50 (second compound 0.0316 µM): 0.171 µM | IC50 (second compound 0.1 µM): 0.176 µM | IC50 (second compound 0.316 µM): 0.182 µM | IC50 (second compound 1 µM): 0.176 µM | IC50 (second compound 3.16 µM): 0.183 µM | IC50 (second compound 10 µM): 0.183 µM | viability, T/C [1]: 103% | viability, T/C [2]: 87% | viability, T/C [3]: 7.72% | viability, T/C [4]: 0.27% | viability, T/C [5]: 0.26% | viability, T/C [6]: 0.18% | viability, T/C [7]: 90.1% | viability, T/C [8]: 91.3% | viability, T/C [9]: 7.71% | viability, T/C [10]: 0.23% | viability, T/C [11]: 0.14% | viability, T/C [12]: 0.15% | viability, T/C [13]: 105% | viability, T/C [14]: 94.8% | viability, T/C [15]: 8.34% | viability, T/C [16]: 0.23% | viability, T/C [17]: 0.12% | viability, T/C [18]: 0.13% | viability, T/C [19]: 92.1% | viability, T/C [20]: 90.8% | viability, T/C [21]: 7.85% | viability, T/C [22]: 0.24% | viability, T/C [23]: 0.13% | viability, T/C [24]: 0.13% | viability, T/C [25]: 104% | viability, T/C [26]: 94.2% | viability, T/C [27]: 9.96% | viability, T/C [28]: 0.26% | viability, T/C [29]: 0.16% | viability, T/C [30]: 0.15% | viability, T/C [31]: 92.5% | viability, T/C [32]: 101% | viability, T/C [33]: 7.98% | viability, T/C [34]: 0.3% | viability, T/C [35]: 0.21% | viability, T/C [36]: 0.19%

Nc1ccn(C2OC(CO)C(O)C2(F)F)c(=O)n1 (stereo not given) + CN(C)c1ccc(Nc2c3ccc(NC(=O)CCN4CCCC4)cc3nc3cc(NC(=O)CCN4CCCC4)ccc23)cc1
IC50 (second compound 0.0316 µM): < 0.0316 µM | IC50 (second compound 0.1 µM): < 0.0316 µM | IC50 (second compound 0.316 µM): < 0.0316 µM | IC50 (second compound 1 µM): < 0.0316 µM | IC50 (second compound 3.16 µM): < 0.0316 µM | IC50 (second compound 10 µM): < 0.0316 µM | viability, T/C [1]: 10.1% | viability, T/C [2]: 9.64% | viability, T/C [3]: 9.07% | viability, T/C [4]: 7.19% | viability, T/C [5]: 8.19% | viability, T/C [6]: 8.56% | viability, T/C [7]: 10.4% | viability, T/C [8]: 7.92% | viability, T/C [9]: 8% | viability, T/C [10]: 7.8% | viability, T/C [11]: 8.64% | viability, T/C [12]: 8.31% | viability, T/C [13]: 10.9% | viability, T/C [14]: 7.8% | viability, T/C [15]: 7.03% | viability, T/C [16]: 7% | viability, T/C [17]: 8.54% | viability, T/C [18]: 8.47% | viability, T/C [19]: 8.71% | viability, T/C [20]: 7.38% | viability, T/C [21]: 6.7% | viability, T/C [22]: 6.93% | viability, T/C [23]: 8.1% | viability, T/C [24]: 7.47% | viability, T/C [25]: 8.12% | viability, T/C [26]: 7.76% | viability, T/C [27]: 7.81% | viability, T/C [28]: 7.28% | viability, T/C [29]: 8% | viability, T/C [30]: 7.61% | viability, T/C [31]: 8.33% | viability, T/C [32]: 7.59% | viability, T/C [33]: 7.12% | viability, T/C [34]: 6.96% | viability, T/C [35]: 7.9% | viability, T/C [36]: 7.91%

CC1COCCN1c1cc(C2(O)CC3CCC(C2)O3)c2cnn(-c3ccn[nH]3)c2n1 (stereo not given) + CN(C)c1ccc(Nc2c3ccc(NC(=O)CCN4CCCC4)cc3nc3cc(NC(=O)CCN4CCCC4)ccc23)cc1
IC50 (second compound 0.0316 µM): 0.0326 µM | IC50 (second compound 0.1 µM): 0.0331 µM | IC50 (second compound 0.316 µM): 0.0347 µM | IC50 (second compound 1 µM): < 0.0316 µM | IC50 (second compound 3.16 µM): < 0.0316 µM | IC50 (second compound 10 µM): < 0.0316 µM | viability, T/C [1]: 51.2% | viability, T/C [2]: 8.79% | viability, T/C [3]: 6.01% | viability, T/C [4]: 4% | viability, T/C [5]: 5.01% | viability, T/C [6]: 3.88% | viability, T/C [7]: 51.8% | viability, T/C [8]: 12% | viability, T/C [9]: 7.24% | viability, T/C [10]: 3.82% | viability, T/C [11]: 4.81% | viability, T/C [12]: 3.87% | viability, T/C [13]: 53.7% | viability, T/C [14]: 8.92% | viability, T/C [15]: 4.46% | viability, T/C [16]: 3.99% | viability, T/C [17]: 5.18% | viability, T/C [18]: 3.41% | viability, T/C [19]: 42.9% | viability, T/C [20]: 9.66% | viability, T/C [21]: 5.45% | viability, T/C [22]: 4.14% | viability, T/C [23]: 5.22% | viability, T/C [24]: 3.81% | viability, T/C [25]: 47% | viability, T/C [26]: 12.8% | viability, T/C [27]: 5.73% | viability, T/C [28]: 3.69% | viability, T/C [29]: 4.72% | viability, T/C [30]: 3.34% | viability, T/C [31]: 46.5% | viability, T/C [32]: 11.9% | viability, T/C [33]: 6.88% | viability, T/C [34]: 3% | viability, T/C [35]: 3.63% | viability, T/C [36]: 2.56%

CC(C)(O)C1CCC(Nc2ccc3ncc(-c4cccc(C(F)(F)F)c4)n3n2)CC1 (stereo not given) + Cc1cnc(CNC(=O)c2c(=O)c3ccc(N4CCCN(C)CC4)nc3n3c2sc2ccccc23)cn1
IC50 (second compound 0.0316 µM): 2.43 µM | IC50 (second compound 0.1 µM): 1.67 µM | IC50 (second compound 0.316 µM): 1.19 µM | IC50 (second compound 1 µM): < 0.0316 µM | IC50 (second compound 3.16 µM): < 0.0316 µM | IC50 (second compound 10 µM): < 0.0316 µM | viability, T/C [1]: 88.7% | viability, T/C [2]: 85.8% | viability, T/C [3]: 94.4% | viability, T/C [4]: 75.5% | viability, T/C [5]: 43% | viability, T/C [6]: 37.2% | viability, T/C [7]: 81.3% | viability, T/C [8]: 78.1% | viability, T/C [9]: 77% | viability, T/C [10]: 59.6% | viability, T/C [11]: 37.9% | viability, T/C [12]: 34.3% | viability, T/C [13]: 55.5% | viability, T/C [14]: 49.5% | viability, T/C [15]: 66.8% | viability, T/C [16]: 54.2% | viability, T/C [17]: 25.2% | viability, T/C [18]: 20.9% | viability, T/C [19]: 48.5% | viability, T/C [20]: 48.2% | viability, T/C [21]: 46.3% | viability, T/C [22]: 43.2% | viability, T/C [23]: 24.2% | viability, T/C [24]: 22.1% | viability, T/C [25]: 34.5% | viability, T/C [26]: 42.2% | viability, T/C [27]: 38.7% | viability, T/C [28]: 35.3% | viability, T/C [29]: 3.82% | viability, T/C [30]: 0.12% | viability, T/C [31]: 37.5% | viability, T/C [32]: 43.4% | viability, T/C [33]: 37.1% | viability, T/C [34]: 39.7% | viability, T/C [35]: 0.2% | viability, T/C [36]: 0.2%

CC1COCCN1c1cc(-c2ccnn2C)c2ccnc(-c3ccn[nH]3)c2n1 (stereo not given) + CN(C)c1ccc(Nc2c3ccc(NC(=O)CCN4CCCC4)cc3nc3cc(NC(=O)CCN4CCCC4)ccc23)cc1
IC50 (second compound 0.0316 µM): 0.0515 µM | IC50 (second compound 0.1 µM): 0.0464 µM | IC50 (second compound 0.316 µM): 0.0509 µM | IC50 (second compound 1 µM): < 0.0316 µM | IC50 (second compound 3.16 µM): 0.0408 µM | IC50 (second compound 10 µM): 0.0325 µM | viability, T/C [1]: 77.7% | viability, T/C [2]: 12.4% | viability, T/C [3]: 6.8% | viability, T/C [4]: 5.06% | viability, T/C [5]: 4.62% | viability, T/C [6]: 5.21% | viability, T/C [7]: 68.3% | viability, T/C [8]: 13.6% | viability, T/C [9]: 6.89% | viability, T/C [10]: 4.08% | viability, T/C [11]: 5.19% | viability, T/C [12]: 5.02% | viability, T/C [13]: 76.5% | viability, T/C [14]: 12.4% | viability, T/C [15]: 5.74% | viability, T/C [16]: 4.54% | viability, T/C [17]: 5.22% | viability, T/C [18]: 5.43% | viability, T/C [19]: 49.3% | viability, T/C [20]: 12.6% | viability, T/C [21]: 6.08% | viability, T/C [22]: 4.26% | viability, T/C [23]: 5.15% | viability, T/C [24]: 4.9% | viability, T/C [25]: 60.6% | viability, T/C [26]: 13.1% | viability, T/C [27]: 6.06% | viability, T/C [28]: 4.8% | viability, T/C [29]: 4.59% | viability, T/C [30]: 4.41% | viability, T/C [31]: 51% | viability, T/C [32]: 12.1% | viability, T/C [33]: 5.91% | viability, T/C [34]: 4.1% | viability, T/C [35]: 4.19% | viability, T/C [36]: 4.01%
